Measured values as given in PMC8401550, “Structural Characterization of a Macrocyclic Peptide Modulator of the PD-1/PD-L1 Immune Checkpoint Axis” (Molecules, 2021).

Tested on: PD-1/PD-L1 interaction, Jurkat cells overexpressing PD-1 with CHO-K1 cells overexpressing TCR activator and PD-L1
Experiment: Cell-surface PD-L1/PD-1 immune checkpoint interaction assay (NFAT-luciferase reporter)
Format: cell-based
Conditions: control antibody; increase in luciferase reporter; fit of Hill equation; mean ± SD from three independent experiments
Description: CHO-K1 expressing the TCR activator and PD-L1 and Jurkat T cells carrying an NFAT-dependent luciferase gene and overexpressing PD-1 were obtained from Promega. The cells were cultured in RPMI 1640 medium supplemented with 10% FBS with hygromycin B (50 µg/mL) and G418 (250 µg/mL) at 37 °C with 5% CO2.
24 h before the experiment, the CHO-K1 cells were seeded on a 96-well plate in an amount of 10,000 cells/well. 2.5-fold serial dilutions of p104 were prepared in DMSO followed by 1000× dilution in the assay buffer (RPMI 1640, 1% FBS). The culture medium was replaced with the assay buffer containing 0.02–250 µM of p104. The Jurkat cells in the amount of 50,000 cells/well were added and co-cultured for 3 h in standard conditions. Luminescence was determined using Bio-Glo Assay reagent (Promega, Madison, WI, USA) following manufacturer protocol. Data were normalized at vehicle-treated control.

## Atezolizumab: FDA-approved therapeutic monoclonal antibody targeting PD-L1
  EC50: 3.4 ± 0.2 nM
